Assay results: paper PMC11224111, “Optimizing the pharmacokinetics of an ^211At-labeled RGD peptide with an albumin-binding moiety via the administration of an albumin-binding inhibitor” (European Journal of Nuclear Medicine and Molecular Imaging, 2024)

Tested on: U-87 MG tumor-bearing mice
Experiment: Biodistribution in U-87 MG tumor-bearing mice with IPBA
Format: in vivo
Conditions: IPBA 10 eq at 1 h postinjection
Protocol: To prepare tumor-bearing mice, 5 × 10^6 of U-87 MG cells were subcutaneously inoculated into the right shoulder of 4-week-old female BALB/c nude mice (13–15 g, Japan SLC, Inc.) as previously reported. At approximately 10-day postinoculation of U-87 MG cells, they were used for each experiment after tumor size reached 0.3–0.5 cm^3.
At 1-h postinjection of [^211At]1 (37 kBq) and [^125I]2 (37 kBq), IPBA (1.9 mg, 6.1 µmol) was administered at 10 molar equivalent of blood albumin. Mice were sacrificed at 65-, 70-min, 2-, 4-, 12-, and 24-h postinjection of [^211At]1 and [^125I]2. Tissues of interest were removed and weighed, and radioactivity counts of ^125I and ^211At were determined with an auto well gamma counter (ARC-7010; Hitachi Medical, Ltd., Tokyo, Japan) and corrected for background radiation. To determine the radioactivity excreted from the body for 24 h, mice were housed in metabolic cages (Metabolica, Sugiyama-Gen Co., Ltd., Tokyo, Japan).

## Ga-DOTA-K([^125I]IPBA)-c(RGDfK) [[^125I]2]
65 min after administration
  Radioactivity, Blood: 11.19 (0.16)^ ** % injected activity per gram
  Radioactivity, Bone: 4.94 (1.52) % injected activity per gram
  Radioactivity, Brain: 0.31 (0.02) % injected activity per gram
  Radioactivity, Heart: 4.77 (0.10) % injected activity per gram
  Radioactivity, Kidney: 17.52 (1.13)^ * % injected activity per gram
  Radioactivity, L. intestine: 3.10 (0.11) % injected activity per gram
  Radioactivity, Liver: 5.29 (0.52)^ * % injected activity per gram
  Radioactivity, Lung: 10.10 (0.52)^ ** % injected activity per gram
  Radioactivity, Muscle: 2.62 (0.24) % injected activity per gram
  Radioactivity, Neck: 0.05 (0.01)^ * % injected activity
  Radioactivity, Pancreas: 2.66 (0.10) % injected activity per gram
  Radioactivity, S. intestine: 4.93 (0.21)^ * % injected activity per gram
  Radioactivity, Spleen: 3.95 (0.26) % injected activity per gram
  Radioactivity, Stomach: 1.33 (0.31) % injected activity
  Radioactivity, Tumor: 11.58 (0.32)^ * % injected activity per gram
70 min after administration
  Radioactivity, Blood: 7.91 (0.45)^ *** % injected activity per gram
  Radioactivity, Bone: 2.30 (0.36) % injected activity per gram
  Radioactivity, Brain: 0.24 (0.04) % injected activity per gram
  Radioactivity, Heart: 3.25 (0.25)^ ** % injected activity per gram
  Radioactivity, Kidney: 11.87 (1.35)^ *** % injected activity per gram
  Radioactivity, L. intestine: 2.29 (0.24) % injected activity per gram
  Radioactivity, Liver: 3.64 (0.49)^ * % injected activity per gram
  Radioactivity, Lung: 6.75 (0.74)^ ** % injected activity per gram
  Radioactivity, Muscle: 1.53 (0.18) % injected activity per gram
  Radioactivity, Neck: 0.06 (0.01) % injected activity
  Radioactivity, Pancreas: 1.82 (0.14)^ * % injected activity per gram
  Radioactivity, S. intestine: 3.77 (0.37)^ ** % injected activity per gram
  Radioactivity, Spleen: 2.83 (0.36) % injected activity per gram
  Radioactivity, Stomach: 0.78 (0.15) % injected activity
  Radioactivity, Tumor: 11.24 (1.19)^ ** % injected activity per gram
2 h after administration
  Radioactivity, Blood: 5.69 (0.44)^ *** % injected activity per gram
  Radioactivity, Bone: 2.73 (0.47) % injected activity per gram
  Radioactivity, Brain: 0.24 (0.02) % injected activity per gram
  Radioactivity, Heart: 2.24 (0.23)^ ** % injected activity per gram
  Radioactivity, Kidney: 8.39 (0.51) % injected activity per gram
  Radioactivity, L. intestine: 2.48 (1.12) % injected activity per gram
  Radioactivity, Liver: 2.31 (0.17)^ * % injected activity per gram
  Radioactivity, Lung: 4.74 (0.12)^ * % injected activity per gram
  Radioactivity, Muscle: 1.73 (0.60)^ * % injected activity per gram
  Radioactivity, Neck: 0.08 (0.04) % injected activity
  Radioactivity, Pancreas: 1.68 (0.36) % injected activity per gram
  Radioactivity, S. intestine: 2.41 (0.71) % injected activity per gram
  Radioactivity, Spleen: 2.33 (0.14) % injected activity per gram
  Radioactivity, Stomach: 0.77 (0.08) % injected activity
  Radioactivity, Tumor: 14.36 (1.54)^ ** % injected activity per gram
4 h after administration
  Radioactivity, Blood: 1.71 (0.12)^ ** % injected activity per gram
  Radioactivity, Bone: 1.46 (0.16) % injected activity per gram
  Radioactivity, Brain: 0.18 (0.01) % injected activity per gram
  Radioactivity, Heart: 1.22 (0.12) % injected activity per gram
  Radioactivity, Kidney: 5.00 (0.36)^ ** % injected activity per gram
  Radioactivity, L. intestine: 4.61 (1.33)^ ** % injected activity per gram
  Radioactivity, Liver: 1.32 (0.06) % injected activity per gram
  Radioactivity, Lung: 2.31 (0.06)^ *** % injected activity per gram
  Radioactivity, Muscle: 0.52 (0.05)^ * % injected activity per gram
  Radioactivity, Neck: 0.05 (0.04) % injected activity
  Radioactivity, Pancreas: 0.72 (0.15) % injected activity per gram
  Radioactivity, S. intestine: 3.09 (0.79) % injected activity per gram
  Radioactivity, Spleen: 1.83 (0.10)^ * % injected activity per gram
  Radioactivity, Stomach: 0.65 (0.09) % injected activity
  Radioactivity, Tumor: 12.42 (0.89) % injected activity per gram
12 h after administration
  Radioactivity, Blood: 1.65 (0.20)^ *** % injected activity per gram
  Radioactivity, Bone: 0.72 (0.09)^ * % injected activity per gram
  Radioactivity, Brain: 0.07 (0.01)^ ** % injected activity per gram
  Radioactivity, Heart: 1.02 (0.07)^ ** % injected activity per gram
  Radioactivity, Kidney: 2.71 (0.17)^ *** % injected activity per gram
  Radioactivity, L. intestine: 0.75 (0.05)^ *** % injected activity per gram
  Radioactivity, Liver: 0.70 (0.08)^ *** % injected activity per gram
  Radioactivity, Lung: 2.07 (0.11)^ *** % injected activity per gram
  Radioactivity, Muscle: 0.37 (0.01)^ *** % injected activity per gram
  Radioactivity, Neck: 0.06 (0.02)^ * % injected activity
  Radioactivity, Pancreas: 0.50 (0.02)^ ** % injected activity per gram
  Radioactivity, S. intestine: 0.68 (0.10)^ *** % injected activity per gram
  Radioactivity, Spleen: 1.03 (0.05)^ ** % injected activity per gram
  Radioactivity, Stomach: 0.39 (0.02)^ ** % injected activity
  Radioactivity, Tumor: 7.08 (0.74)^ ** % injected activity per gram
24 h after administration
  Radioactivity, Blood: 1.55 (0.17)^ * % injected activity per gram
  Radioactivity, Bone: 0.48 (0.04) % injected activity per gram
  Radioactivity, Brain: 0.05 (0.01) % injected activity per gram
  Radioactivity, Heart: 0.92 (0.58) % injected activity per gram
  Radioactivity, Kidney: 1.67 (0.24) % injected activity per gram
  Radioactivity, L. intestine: 0.38 (0.22) % injected activity per gram
  Radioactivity, Liver: 0.56 (0.10)^ * % injected activity per gram
  Radioactivity, Lung: 1.58 (0.42) % injected activity per gram
  Radioactivity, Muscle: 0.26 (0.02) % injected activity per gram
  Radioactivity, Neck: 0.03 (0.00) % injected activity
  Radioactivity, Pancreas: 0.27 (0.05) % injected activity per gram
  Radioactivity, S. intestine: 0.26 (0.11) % injected activity per gram
  Radioactivity, Spleen: 0.72 (0.16)^ * % injected activity per gram
  Radioactivity, Stomach: 0.20 (0.04)^ * % injected activity
  Radioactivity, Tumor: 5.51 (0.05)^ * % injected activity per gram
Until 24 h postinjection
  Radioactivity excreted, Feces: 8.40 (3.14) % injected activity
  Radioactivity excreted, Urine: 56.09 (4.93)^ ** % injected activity
